Reference: patent US5004749A, “Concentrated aqueous solution of glutaraldehyde and 1,2-benzisothiazolin-3-one” (priority 1989, dated 1991)
≈ marks a conversion by molar mass, not a printed value.

Tests used:
[1] = type: physicochemical
Experimental: In order to compare the composition of the present invention with that disclosed in U.S. Pat. No. 4,539,071 (Clifford et al) a stable aqueous composition of isothiazolone, the following experiment was performed. To deionized water were added 0.2 percent cupric nitrate, 9 percent magnesium chloride and 15 percent magnesium nitrate, all in percent by weight.

[2] = system: Acinetobacter calcoaceticus, Pseudomonas aeruginosa, Enterobacter cloacae and Escherichia coli; assay: MIC in calcium carbonate slurry, inoculated weekly, reduction to less than ten colony forming units/ml (Example 3); type: cell-based; conditions: for MIC: Calcium Carbonate Slurry
Experimental: Several forty gram samples of a calcium carbonate slurry (Gamma-Fil 90, available from the Georgia Marble Company) which were free of microbial growth, were prepared. These samples were divided into four groups. The first group was dosed with varying amounts of glutaraldehyde (in the form of a 50 percent aqueous solution); the second group was dosed with varying amounts of 1,2-benzisothiazolin-3-one the third group was dosed with varying amounts of glutaraldehyde (in the form of a 50 percent aqueous solution) and of 1,2-benzisothiazolin-3-one (in the form of Proxel® Press Paste) in a 14:1 ratio by weight of glutaraldehyde:BIT a fourth group was left untreated as a control. These samples were each inoculated three times on a weekly basis with an inoculum which contained the following microorganisms: Acinetobacter calcoaceticus, Pseudomonas aeruginosa, Enterobacter cloacae and Escherichia coli. The minimum inhibitory concentration (MIC) values were determined for preservative levels effective in reducing the contaminating microorganisms to less than ten colony forming units/ml for the first three groups. The number of colony forming units/ml in the control group was also determined.
(§1) The results for Examples 3 and 4 were quantified with respect to the synergy shown through the application of an equation described in Berenbaum, M.C. "A method for Testing for Synergy with Any Number of Agents" The Journal of Infectious Diseases, Vol 137, No. 2 pp 122-130 (February, 1978). The relevant equation is as follows: [formula]
(§2) If Z is less than 1, synergy is present. If Z equals 1, additive interaction is present. If Z is greater than 1, an antagonistic interaction is present.

physchem = type: physicochemical
Experimental: A pH 3.2 solution was attained by adding 12.5 ml of 0.2 M acetic acid to 100 ml of deionized water. The pH 4.8 solution was prepared by adding 22.5 ml of 0.2 M acetic acid plus 27.5 ml of 0.2 M sodium acetate brought to a total volume of 100 ml with deionized water. Finally the pH of 6.8 solution was created by adding 4.1 ml of 0.2 M sodium acetate plus 1 drop of 0.2 M acetic acid to 100 ml of deionized water. […] Employing the same buffering agents, solutions with 50% aqueous glutaraldehyde were prepared having pH's of 3.2, 4.8 and 6.8 respectively. A twenty ml solution having a pH of 3.2 was attained with 1.45 ml of acetic acid; the twenty ml solution having a pH of 4.8 contained acetic acid and sodium acetate in a 3:1 weight ratio and the twenty ml solution having a pH of 6.8 contained 1.25 g of sodium acetate. The solubility of BIT in each solution was determined as described above.

microbial contamination = assay: MIC in kaolin slurry with significant microbial spoilage, reduction to less than ten colony forming units/ml (Example 4); type: cell-based
Experimental: A sample of kaolin slurry with significant microbial spoilage was dosed with a range of concentrations of 1,2-benzisothiazolin-3-one, glutaraldehyde, and 1,2-benzisothiazolin-3-one plus glutaraldehyde (1:14 weight ratio). A sample was included, antimicrobial free, for control purposes with determinations of the colony forming units/ml. MIC values (in parts per million of Active Ingredient) to reduce microbial contamination to less than ten colony forming units/ml were determined by the absence of detectable growth by dilution plate counts.
as §1, §2

solubility of 1,2-benzisothiazolin-3-one [1] | MIC ([2]; Week 1) [µg/mL] | MIC ([2]; Week 2) [µg/mL] | MIC ([2]; Week 3) [µg/mL] | solubility of 1,2-benzisothiazolin-3-one is increased by the addition of glutaraldehyde (physchem) | solubility (physchem; buffered 50% aqueous glutaraldehyde, pH 3.2) [mg/mL] | solubility (physchem; buffered 50% aqueous glutaraldehyde, pH 4.8) [mg/mL] | solubility (physchem; buffered 50% aqueous glutaraldehyde, pH 6.8) [mg/mL] | solubility (physchem; buffered deionized water, pH 3.2) [mg/mL] | solubility (physchem; buffered deionized water, pH 4.8) [mg/mL] | solubility (physchem; buffered deionized water, pH 6.8) [mg/mL] | MIC (microbial contamination; 24 h, 1 day) [µg/mL] | MIC (microbial contamination; 48 h, 2 days) [µg/mL] | MIC (microbial contamination; 72 h, 3 days) [µg/mL] | MIC (microbial contamination; 168 h, 7 days) [µg/mL] | SMILES | antimicrobial activity/potency on repeated challenge (in words) ([2]; calcium carbonate slurry, second and third challenges with microbial insults)
essentially nil | 285 | > 570 | 380 | increased considerably | 31.8 (≈ 210 mM) | 33.8 (≈ 224 mM) | 30.4 (≈ 201 mM) | 3.2 (≈ 21.2 mM) | 1.1 (≈ 7.28 mM) | 0.4 (≈ 2.65 mM) | 178 | > 178 | > 178 | 133 | O=c1[nH]sc2ccccc12 [BIT, 1,2-benzisothiazolin-3-one] | –
– | 250 | 500 | 500 | – | – | – | – | – | – | – | 250 | 150 | 200 | 250 | O=CCCCC=O [Glutaraldehyde, glutaraldehyde] | undergoes a reduction in antimicrobial activity
